These results are taken from patent US20210188843A1, “QUINOLINE COMPOUNDS AND THEIR PREPARATION AND USE AS ANTIMALARIAL AGENTS” (The United States of America,as represented by the …, priority 2018, published 2021).

Values after ≈ are worked out from the molar mass of the structure shown.

In series [1] the test system is Asexual parasites of P. falciparum strain 3D7. The series is described as follows: In vitro drug activity on asexual parasites (SYBR Green assay). Type of series: cell-based. The note with it: Plasmodium falciparum; Table 1; P. falciparum 3D7 asexual stage, 72 h; read-out: Asexual EC50. Put shortly:
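Growth was measured by SYBR Green I fluorescence (excitation 490 nm, emission 520 nm) after freeze-thaw lysis and 30 min staining at room temperature. Parasites (0.5% parasitemia, 2% hematocrit) had been incubated 72 h with compound, DMSO below 0.5%. Conditions were run in duplicate with no-drug and RBC-alone controls.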

Series [2] in a line: Microsomal stability (rat). It is filed as in vitro ADME. The note with it: rat microsomes, Table 1, read-out: Microsomal Stability (rat) T1/2.
Series [3] is described as follows: Solubility pH 7.4. It is filed as physicochemical. The note with it: aqueous buffer, Table 1.

Take `Cn1c(=N)n(-c2ccc(N3CCNCC3)c(C(F)(F)F)c2)c2c3cc(-c4ccc(Cl)cc4)ccc3ncc21` [Compound 72, 8-(4-chlorophenyl)-3-methyl-1-(4-(piperazin-1-yl)-3-(trifluoromethyl)phenyl)-1,3-dihydro-2H-imidazo[4,5-c]quinolin-2-imine]: the concentration for a half-maximal effect (EC50) in series [1] came out at 0.258 µM. The half-life in series [2] is over 30 min. The solubility in series [3] was under 0.001 mg/mL.

For `CC(=O)c1cccc(-n2c(=N)n(C)c3cnc4ccc(-c5ccc(Cl)cc5)cc4c32)c1` [Compound 74, 1-(3-(8-(4-chlorophenyl)-2-imino-3-methyl-2,3-dihydro-1H-imidazo[4,5-c]quinolin-1-yl)phenyl)ethan-1-one], the EC50 in series [1] worked out at 0.445 µM. The half-life in series [2] is over 30 min. In series [3], this compound displayed a solubility of over 0.042 mg/mL.

`Cn1c(=N)n(-c2cccc(S(C)(=O)=O)c2)c2c3cc(-c4ccc(Cl)cc4)ccc3ncc21` [Compound 75, 8-(4-chlorophenyl)-3-methyl-1-(3-(methylsulfonyl)phenyl)-1,3-dihydro-2H-imidazo[4,5-c]quinolin-2-imine]: the EC50 in series [1] came out at 1.02 µM. In addition, the half-life in series [2] is over 30 min. The compound also registered a solubility in series [3] of 0.0117 mg/mL (≈ 25.3 µM).

Take `Cn1c(=N)n(-c2cccc(S(N)(=O)=O)c2)c2c3cc(-c4ccc(Cl)cc4)ccc3ncc21` [Compound 77, 3-(8-(4-chlorophenyl)-2-imino-3-methyl-2,3-dihydro-1H-imidazo[4,5-c]quinolin-1-yl)benzenesulfonamide]: the 50% effective concentration (EC50) in series [1] came to 1.4 µM. The half-life in series [2] is over 30 min. The compound further showed a solubility in series [3] of 0.0062 mg/mL (≈ 13.4 µM).

Turning to `Cn1c(=N)n(-c2ccccc2F)c2c3cc(-c4ccc(Cl)cc4)ccc3ncc21` [Compound 80, 8-(4-chlorophenyl)-1-(2-fluorophenyl)-3-methyl-1,3-dihydro-2H-imidazo[4,5-c]quinolin-2-imine], the EC50 in series [1] came out at 0.955 µM. The half-life in series [2] is over 30 min. This compound came in with a solubility in series [3] of 0.0124 mg/mL (≈ 30.8 µM).

In the case of `Cc1ccccc1-n1c(=N)n(C)c2cnc3ccc(-c4ccc(Cl)cc4)cc3c21` [Compound 81, 8-(4-chlorophenyl)-3-methyl-1-(o-tolyl)-1,3-dihydro-2H-imidazo[4,5-c]quinolin-2-imine], the EC50 in series [1] is 1.64 µM. The half-life in series [2] was over 30 min. This compound also yielded a solubility in series [3] of over 0.039 mg/mL.

Consider `COc1ccccc1-n1c(=N)n(C)c2cnc3ccc(-c4ccc(Cl)cc4)cc3c21` [Compound 82, 8-(4-chlorophenyl)-1-(2-methoxyphenyl)-3-methyl-1,3-dihydro-2H-imidazo[4,5-c]quinolin-2-imine], for which the EC50 in series [1] was determined as 1.67 µM. Moreover, the half-life in series [2] is over 30 min. Besides, the solubility in series [3] was over 0.041 mg/mL.

In the case of `COc1ccc(-n2c(=N)n(C)c3cnc4ccc(-c5ccc(Cl)cc5)cc4c32)cc1C#N` [Compound 84, 5-(8-(4-chlorophenyl)-2-imino-3-methyl-2,3-dihydro-1H-imidazo[4,5-c]quinolin-1-yl)-2-methoxybenzonitrile], in series [1], the EC50 is 0.658 µM. In addition, in series [2], the half-life is over 30 min. This compound gave a solubility in series [3] of under 0.001 mg/mL.

As to `CCCCOC(=O)/N=c1\n(C)c2cnc3ccc(-c4ccc(Cl)cc4)cc3c2n1-c1cc(C#N)ccc1C` [Compound 89, butyl (E)-(8-(4-chlorophenyl)-1-(5-cyano-2-methylphenyl)-3-methyl-1,3-dihydro-2H-imidazo[4,5-c]quinolin-2-ylidene)carbamate], the EC50 in series [1] is 0.601 µM. In series [2], the half-life was 6.2 min. In series [3], this compound came in with a solubility of under 0.001 mg/mL.

Turning to `CCn1c(=N)n(-c2cc(C#N)ccc2C)c2c3cc(-c4ccc(Cl)cc4)ccc3ncc21` [Compound 93, 3-(8-(4-chlorophenyl)-3-ethyl-2-imino-2,3-dihydro-1H-imidazo[4,5-c]quinolin-1-yl)-4-methylbenzonitrile], the EC50 in series [1] was determined as 0.813 µM. Besides, the half-life in series [2] is over 30 min. For the same compound, in series [3], the concentration in solution (solubility) was 0.0136 mg/mL (≈ 31.1 µM).

What is called EC50 is the concentration at which the effect is half-maximal. Broadly, the solubility is how much of the substance goes into solution per volume. A high value points to much dissolved substance.
